In PMC10244622, “Concerted suppressive effects of carisbamate, an anti-epileptic alkyl-carbamate drug, on voltage-gated Na^+ and hyperpolarization-activated cation currents” (Frontiers in Cellular Neuroscience, 2023):

Columns and labels:
[1] = tested on: T1, voltage-gated Na^+ (NaV) channels (INa in GH3 cells); test: whole-cell patch clamp; format: cell-based; conditions: transient (peak) INa(T); 30-ms step from -100 to -10 mV; Ca2+-free Tyrode, 10 mM TEA, 0.5 mM CdCl2; pH 7.4; 20-25 °C; native GH3 cells
T1 construct: gene Scn1a; native whole-cell current in GH3 pituitary cells; hNaV1.7 only docked

[2] = tested on: T2, HCN channel (hyperpolarization-activated cation current, Ih, in GH3 cells); test: whole-cell patch clamp; format: cell-based; conditions: Ih at end of 2-s step from -40 to -110 mV; Ca2+-free Tyrode with 1 μM TTX; pH 7.4; 20-25 °C; native GH3 cells
T2 construct: gene Hcn2; native whole-cell current in GH3 pituitary cells; homo- or mixed HCN2+HCN3; PDB 5V4S is only a docking model

Structure (SMILES): NC(=O)OC[C@@H](O)c1ccccc1Cl [CRS, [(2S)-2-(2-chlorophenyl)-2-hydroxyethyl] carbamate]
- IC50 [1]: 56.4 µM
- IC50 [2]: 38 µM
